# Measurements taken from article PMC10560236, “A protein kinase C α and β inhibitor blunts hyperphagia to halt renal function decline and reduces adiposity in a rat model of obesity-driven type 2 diabetes” (Scientific Reports, 2023).
# “And” between values parts separate entries of the source, which are not always exact repeats. Identical values can stand only once.
# Assays:
# ZSF1 lean and SD rats = experiment: 7-day food consumption and body weight study, Cmpd 1 chow, ZSF1 lean and SD rats; format: in vivo, rat; settings: 7 days
# Excerpt: To evaluate food consumption in different rat strains, cohorts of 10 male ZSF1 obese rats, 8 male ZSF1 lean littermate rats, and 10 age-matched male Sprague Dawley (SD) rats were divided into two groups and fed chow with or without 0.744 g/kg Cmpd 1 (Cmpd 1 chow) for 7 days.
# ZSF1 obese rats = experiment: 10-week efficacy study with chow dosing; format: in vivo, rat
# Excerpt: Male ZSF1 (ZSF1-Lepr^faLepr^cp/Crl) lean rats (strain code #379) and ZSF1 obese rats (strain code #378) were obtained from Charles River Laboratories (Wilmington, MA). Male rats for all groups were obtained at 8–9 weeks of age at which time they were switched to high carbohydrate Purina 5008 chow (27% kcal protein, 17% kcal fat, 57% kcal carbohydrates). At 21–22 weeks of age they were then enrolled in the 10 week study. All groups were maintained on normal Purina 5008 chow for the 10 week study except the Cmpd 1 group, which was provided Purina 5008 chow formulated with 0.744g Cmpd 1 per kg chow (approximately 50 mpk/d Cmpd 1 administration; n = 5 Lean, n = 12 Obese, n = 11 Cmpd 1, n = 11 Food matched—see Fig. 4a). The amount of food provided to the Food matched group each week was determined by the estimated food consumption by the Cmpd 1 group the previous week. For all three ZSF1 obese groups, 3 animals were taken down at study mid-point for an interim analysis. All experimental protocols involving animals were reviewed and approved by the Pfizer Inc. Institutional Animal Care and Use Committee (IACUC). All experiments were performed in accordance with relevant guidelines and regulations, and all methods are reported in accordance with ARRIVE guidelines (https://arriveguidelines.org).
# Male ZSF1 obese rats that had been maintained on Purina 5008 chow were switched to Purina 5008 chow with or without 0.744 g/kg Cmpd 1 at 22 weeks of age. The study duration was 10 weeks. Estimated food consumption monitored weekly. An additional group of ZSF1 obese rats was included which received an amount of Purina 5008 chow to match the previous week’s estimated food consumption by the Cmpd 1 group. Five male ZSF1 lean littermates served as baseline controls. Intermediate blood samples were taken through tail vein. 24-h urine samples at weeks 0, 5 and 10 were collected from animals in metabolic cages. Animals were sacrificed by CO2 asphyxiation followed by blood collection via cardiac puncture and tissues fixation in 10% neutral buffered formalin for histology. Unfixed inguinal white adipose tissue was also collected at study termination for downstream molecular analyses.
# All assays except the insulin assay were run with the ADVIA 1800 Chemistry System (Siemens Medical Systems Diagnostics, Tarrytown, NY, USA). The serum insulin assay was run using a SpectraMax® Plus384 Absorbance Microplate Reader (Molecular Devices San Jose, CA, USA). Siemens Medical System assay kits 10376501, 10311891, 10335892, and 10335891 were used for cholesterol, low density lipoprotein (LDL)-cholesterol, triglycerides, and glucose, respectively. Roche HDL-C Reagent 3rd generation assay kit 4713257190 was used for high density lipoprotein (HDL)-cholesterol assay. For insulin, an ALPCO Diagnostics assay kit 80-INSMS-E01 was used.
# Samples of formalin-fixed, paraffin embedded (FFPE) liver and kidney were sectioned and stained for Hematoxylin and Eosin (HE) and evaluated microscopically by a board-certified veterinary pathologist blinded to the treatment groups. In the kidney, microscopic features were assigned an end stage renal disease (ESRD) severity score of 1–5 (minimal to severe) using the following criteria: Grade 1 (minimal): < 10% of parenchyma affected, few glomeruli affected and no Bowman’s capsule thickening with only few protein casts and basophilic tubules observed; Grade 2 (mild): 10–25% of renal parenchyma affected, there is scattered thickening of Bowman’s capsule, +/− synechiation; Grade 3 (moderate): 26–50% of renal parenchyma affected, glomerular and tubulointerstitial changes are present; Grade 4 (marked): 51–75% of renal parenchyma affected, glomerular and tubulointerstitial changes are present; Grade 5 (severe): > 75% of renal parenchyma affected, glomerular and tubulointerstitial changes are present. […]
# PKCθ = PKCθ (Homo sapiens, UniProt Q04759); experiment: Z'-Lyte recombinant enzyme assay, PKCθ; format: biochemical
# PKCθ, sequence (Q04759 whole entry): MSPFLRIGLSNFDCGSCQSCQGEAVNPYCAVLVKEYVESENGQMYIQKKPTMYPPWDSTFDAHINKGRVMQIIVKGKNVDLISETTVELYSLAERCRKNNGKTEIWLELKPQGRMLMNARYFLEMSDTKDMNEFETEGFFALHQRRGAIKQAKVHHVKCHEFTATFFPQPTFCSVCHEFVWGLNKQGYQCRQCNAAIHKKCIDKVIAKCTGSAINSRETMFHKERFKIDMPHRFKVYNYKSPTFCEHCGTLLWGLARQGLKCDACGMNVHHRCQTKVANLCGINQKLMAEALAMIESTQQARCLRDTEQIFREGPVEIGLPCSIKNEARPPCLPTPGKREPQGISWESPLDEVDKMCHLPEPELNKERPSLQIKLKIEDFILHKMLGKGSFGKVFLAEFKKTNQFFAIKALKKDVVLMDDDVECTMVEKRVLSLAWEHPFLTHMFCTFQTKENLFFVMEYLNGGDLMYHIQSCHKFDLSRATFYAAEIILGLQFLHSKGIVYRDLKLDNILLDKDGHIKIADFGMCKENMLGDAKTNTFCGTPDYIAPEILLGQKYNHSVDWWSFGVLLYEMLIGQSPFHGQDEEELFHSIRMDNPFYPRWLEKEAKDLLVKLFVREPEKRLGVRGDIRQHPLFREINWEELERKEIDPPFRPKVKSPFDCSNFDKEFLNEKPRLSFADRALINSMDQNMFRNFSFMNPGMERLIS
# Description: (§1) Half maximal inhibitory concentrations of Cmpd 1 were determined by Z’-Lyte biochemical assays (Life Technologies SelectScreen™ Kinase Profiling Services, Thermo Fisher Scientific). Kinome selectivity was determined at 1 μM Cmpd 1 concentration against a panel of 119 kinases. The original kinome tree in Fig. 1b was taken from Ref.[68].
# PKCδ = PKCδ (Homo sapiens, UniProt Q05655); experiment: Z'-Lyte recombinant enzyme assay, PKCδ; format: biochemical
# PKCδ, sequence (Q05655 whole entry): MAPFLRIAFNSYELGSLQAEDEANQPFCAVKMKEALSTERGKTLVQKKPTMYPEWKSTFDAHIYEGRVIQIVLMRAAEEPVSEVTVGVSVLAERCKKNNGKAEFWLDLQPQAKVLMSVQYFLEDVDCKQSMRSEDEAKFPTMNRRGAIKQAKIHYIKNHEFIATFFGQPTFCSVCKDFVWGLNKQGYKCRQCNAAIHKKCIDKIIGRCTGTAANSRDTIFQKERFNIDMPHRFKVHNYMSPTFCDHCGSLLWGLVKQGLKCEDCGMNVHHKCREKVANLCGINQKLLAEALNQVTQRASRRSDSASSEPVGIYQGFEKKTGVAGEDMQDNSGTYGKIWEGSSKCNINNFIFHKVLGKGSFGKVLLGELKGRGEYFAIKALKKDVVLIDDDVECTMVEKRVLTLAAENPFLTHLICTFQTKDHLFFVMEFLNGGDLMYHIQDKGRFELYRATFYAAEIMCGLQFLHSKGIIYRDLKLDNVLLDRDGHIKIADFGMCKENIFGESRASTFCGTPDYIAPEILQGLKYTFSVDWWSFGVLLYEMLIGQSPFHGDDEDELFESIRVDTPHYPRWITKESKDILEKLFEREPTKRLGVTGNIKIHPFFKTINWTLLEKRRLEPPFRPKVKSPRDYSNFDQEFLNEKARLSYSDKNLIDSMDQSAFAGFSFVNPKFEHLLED
# Description: as §1
# PKCε = target: T1, PKCε (Homo sapiens, UniProt Q02156); experiment: Z'-Lyte recombinant enzyme assay, PKCε; format: biochemical
# T1 sequence (Q02156 1-737): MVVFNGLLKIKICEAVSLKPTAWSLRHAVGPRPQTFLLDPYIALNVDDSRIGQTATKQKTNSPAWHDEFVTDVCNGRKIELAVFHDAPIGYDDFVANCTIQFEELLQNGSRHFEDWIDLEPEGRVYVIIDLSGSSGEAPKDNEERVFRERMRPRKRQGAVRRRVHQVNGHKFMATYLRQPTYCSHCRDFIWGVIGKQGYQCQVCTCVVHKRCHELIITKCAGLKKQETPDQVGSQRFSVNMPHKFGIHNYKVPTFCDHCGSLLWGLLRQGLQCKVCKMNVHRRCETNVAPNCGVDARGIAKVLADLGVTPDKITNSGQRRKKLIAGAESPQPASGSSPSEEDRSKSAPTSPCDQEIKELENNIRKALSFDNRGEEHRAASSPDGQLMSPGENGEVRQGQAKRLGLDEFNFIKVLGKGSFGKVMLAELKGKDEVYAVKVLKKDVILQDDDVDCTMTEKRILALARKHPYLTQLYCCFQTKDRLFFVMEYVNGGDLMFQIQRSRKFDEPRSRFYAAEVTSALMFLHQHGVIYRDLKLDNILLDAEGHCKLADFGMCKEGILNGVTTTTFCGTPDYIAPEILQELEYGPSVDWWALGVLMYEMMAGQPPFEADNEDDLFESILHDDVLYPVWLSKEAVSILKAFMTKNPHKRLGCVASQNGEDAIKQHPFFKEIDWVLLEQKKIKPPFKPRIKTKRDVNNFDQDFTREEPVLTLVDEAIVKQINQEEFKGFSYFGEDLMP
# Description: as §1
compound,measurement,setting,value
"Cc1ncc(F)c(Nc2n[nH]c3c2CN(C(=O)N2C[C@@H](C)N(CC4CCOCC4)C[C@@H]2C)C3(C)C)n1 [Cmpd 1, 5-[(2S,5R)-2,5-dimethyl-4-(tetrahydro-2H-pyran-4-ylmethyl)piperazin-l-yl]carbonyl-N-(5-fluoro-2-methylpyrimidin-4-yl)-6,6-dimethyl-1,4,5,6-tetrahydropyrrolo[3,4-c]pyrazol-3-amine]",Body weight loss,ZSF1 lean and SD rats,did not
same,"Progressive decline in renal function (uMALB:creatinine ratio, 24-h urinary protein excretion)","ZSF1 obese rats; 10-week study, same in Food matched group",virtually halted
same,Average body weight at study termination,ZSF1 obese rats; 10 weeks Cmpd 1 chow,504 g and 504 ± 35 g
same,Estimated food consumption at study termination,ZSF1 obese rats; 10 weeks Cmpd 1 chow,31 g/day
same,Body weight less than Lean animals at study termination,"ZSF1 obese rats; 10 weeks, not statistically different",approximately 7%
same,"Estimated average food consumption, first three days",ZSF1 obese rats; Cmpd 1 chow approx. 50 mpk/day,22 g/day
same,"Reduction in food consumption versus Obese group, first three days",ZSF1 obese rats; Cmpd 1 chow approx. 50 mpk/day,27%
same,Animals with liver macrovacuolation score of 0,"ZSF1 obese rats; after 10 weeks of dosing, score 0–3",five of eight
same,ESRD score at study termination,"ZSF1 obese rats; blinded histology, versus Obese, comparable to Food matched group",reduced comparably
same,Serum cholesterol and triglyceride profile versus Obese group,ZSF1 obese rats; non-fasting serum,improved
same,Serum glucose levels,ZSF1 obese rats; non-fasting serum,elevated
same,Serum AST versus Obese group,"ZSF1 obese rats; non-fasting, 5 weeks, statistically significant, not evident at 10 weeks",increased
same,Serum ALT versus Obese group,"ZSF1 obese rats; non-fasting, 10 weeks, statistically significant",reduced
same,Serum insulin,"ZSF1 obese rats; non-fasting, week 5 study midpoint",0.62 (± 0.35) ng/mL
same,ESRD severity grade of representative kidney image,"ZSF1 obese rats; study endpoint, representative image Fig. 6c",Grade 1 (Grade 1 (minimal): < 10% of parenchyma affected)
same,Average body weight at study start,"ZSF1 obese rats; study start, 21–22 weeks of age",564 g
same,iWAT weight,ZSF1 obese rats; study termination,29 ± 5.5 g
same,Increase in adipocyte size in iWAT,"ZSF1 obese rats; study termination, histology, not in Food matched group",blunted
same,Average CD45+ cell staining area in iWAT,"ZSF1 obese rats; study termination, immunohistochemistry",0.045 ± 0.025%
same,Liver weights,"ZSF1 obese rats; study termination, primarily reflected overall body weight differences",reduced
same,IC50,PKCθ,28 nM
same,IC50,PKCδ,1550 nM
same,IC50,PKCε,623 nM
